From patent publication US8383853B2, “Method for preparing 2,6-diethyl-4-methylphenylacetic acid” (Bayer Cropscience AG, priority 2004, dated 2013)

Experiments:
Type in all cases: in vivo
Summer wheat = test: Container trials with cereal, post-emergence, without or with safener; conditions: crop damage, 28 days after application
Protocol: (§1) Seeds of monocotyledonous and dicotyledonous weed and crop plants are placed into sandy loam in wood fiber pots or in plastic pots, covered with soil and cultivated in a greenhouse, during the vegetation period also outdoors outside of the greenhouse, under good growth conditions. Two-three weeks after sowing, the test plants are treated at the one- to three-leaf stage. The test compounds, formulated as wettable powders (WP) or liquid (EC) are, in various dosages with a water application rate of […] (converted), with wetting agent (0.2 to 0.3%) added, sprayed onto the plants and the surface of the soil. Three-four weeks after the treatment of the test plants, the effect of the preparations is rated visually in comparison to untreated controls (herbicidal effect in percent (%): 100% effect=the plants have died, 0% effect=like control plants).
(§2) If it is additionally to be tested as to whether safeners can improve the plant compatibility of test substances in the case of crop plants, the following options are used for applying the safener: • seeds of the crop plants are, before sowing, dressed with the safener substance (the amount of safener stated in percent, based on the weight of the seed) • before the application of the test substances, the crop plants are sprayed with the safener at a certain application rate per hectare (usually 1 day before the application of the test substances) • the safener is applied together with the test substance as a tank mix (the amount of safener is stated in g/ha or as a ratio, based on the herbicide).
(§3) By comparing the effect of the test substances on crop plants without or with safener treatment, it is possible to assess the effect of the safener substance.

Summer barley = test: as above; conditions: crop damage
Protocol: as §1, §2, §3

Alopecurus [1] = test: Herbicidal post-emergence action; conditions: greenhouse, 80 g of a.i./ha
Protocol: (§4) Seeds of monocotyledonous and dicotyledonous weed and crop plants are placed into sandy loam in wood fiber pots, covered with soil and cultivated in a greenhouse under good growth conditions. Two-three weeks after sowing, the test plants are treated at the one-leaf stage. The test compounds, formulated as wettable powders (WP), are then, in various dosages with a water application rate of 600 l/ha (converted), with 0.2% of wetting agent added, sprayed onto the green parts of the plants. After the test plants have been kept in the greenhouse under optimum growth conditions for about 3 weeks, the effect of the preparations is rated visually in comparison to untreated controls (herbicidal effect in percent (%): 100% effect=the plants have died, 0% effect=like control plants).

Lolium multiflorum [2] = test: Herbicidal post-emergence action; conditions: greenhouse, 80 g of a.i./ha
Protocol: as §4

Avena fatua [3] = test: Herbicidal post-emergence action; conditions: greenhouse, 80 g of a.i./ha
Protocol: as §4

Veronica [4] = test: Herbicidal post-emergence action; conditions: greenhouse, 80 g of a.i./ha
Protocol: as §4

Setaria viridis [5] = test: Herbicidal post-emergence action; conditions: greenhouse, 80 g of a.i./ha
Protocol: as §4

Meloidogyne incognita = test: Meloidogyne test (spray treatment); conditions: 20 ppm of a.i., after 14 d
Protocol: To produce a suitable preparation of active compound, 1 part by weight of active compound is mixed with the stated amounts of solvent, and the concentrate is diluted with water to the desired concentration.
Vessels are filled with sand, solution of active compound, Meloidogyne incognita egg/larva suspension and lettuce seeds. The lettuce seeds germinate and the plants develop. On the roots, galls are formed.
After the desired period of time, the nematicidal activity is determined in % by the formation of galls. 100% means that no galls have been found; 0% means that the number of galls on the treated plants corresponds to that of the untreated control.

Alopecurus [6] = test: Herbicidal pre-emergence action; conditions: greenhouse
Source text: (§5) Seeds of monocotyledonous and dicotyledonous weed and crop plants are placed in sandy loam in wood fiber pots and covered with soil. The test compounds, formulated in the form of wettable powders (WP), are then, as an aqueous suspension with a water application rate of 600 l/ha (converted), with 0.2% of wetting agent added, applied to the surface of the covering soil in various dosages.
(§6) After the treatment, the pots are placed in a greenhouse and kept under good growth conditions for the test plants. The visual assessment of the emergence damage on the test plants is carried out after a trial period of 3 weeks by comparison with untreated controls (herbicidal effect in percent (%): 100% effect=the plants have died, 0% effect=like control plants).

Lolium multiflorum [7] = test: Herbicidal pre-emergence action; conditions: greenhouse
Source text: as §5, §6

Avena fatua [8] = test: Herbicidal pre-emergence action; conditions: greenhouse
Source text: as §5, §6

Veronica [9] = test: Herbicidal pre-emergence action; conditions: greenhouse, 320 g of a.i./ha
Source text: as §5, §6

Setaria viridis [10] = test: Herbicidal pre-emergence action; conditions: greenhouse
Source text: as §5, §6

Echinochloa crus-galli = test: Herbicidal post-emergence action; conditions: greenhouse, 80 g of a.i./ha
Protocol: as §4

Echinochloa = test: Herbicidal pre-emergence action; conditions: greenhouse, 80 g of a.i./ha
Source text: as §5, §6

[11] = greenhouse, post-emergence, 12.5 g of a.i./ha
[12] = greenhouse, post-emergence, 25 g of a.i./ha

SMILES: CCOC1CCC2(CC1)NC(=O)C(c1c(CC)cc(C)cc1CC)=C2O (single isomer, unassigned) [I-a-2]
- Summer wheat observed (%) (Summer wheat; 12.5 g of a.i./ha): 40%
- Summer wheat observed (%) (Summer wheat; 25 g of a.i./ha): 80%
- Summer barley observed (%) (Summer barley; 28 days after application, 25 g of a.i./ha): 25%
- Summer barley observed (%) (Summer barley; 28 days after application, 50 g of a.i./ha): 50%

SMILES: CCOCC(=O)OC1=C(c2c(CC)cc(C)cc2CC)C(=O)NC12CCC(OC)CC2 (single isomer, unassigned) [I-b-2]
- herbicidal effect, Alopecurus (Alopecurus [1]): 100%
- herbicidal effect, Lolium (Lolium multiflorum [2]): 100%
- herbicidal effect, Avena fatua (Avena fatua [3]): 100%
- herbicidal effect, Veronica (Veronica [4]): 70%
- herbicidal effect, Setaria (Setaria viridis [5]): 100%
- Summer wheat observed (%) (Summer wheat; 12.5 g of a.i./ha): 95%
- nematicidal activity in % by the formation of galls (Meloidogyne incognita): ≥ 70%
- herbicidal effect, Alopecurus (Alopecurus [6]; 320 g of a.i./ha): 100%
- herbicidal effect, Lolium (Lolium multiflorum [7]; 320 g of a.i./ha): 100%
- herbicidal effect, Avena fatua (Avena fatua [8]; 320 g of a.i./ha): 90%
- herbicidal effect, Veronica (Veronica [9]): 100%
- herbicidal effect, Setaria (Setaria viridis [10]; 320 g of a.i./ha): 100%

SMILES: CCOC(=O)OC1=C(c2c(CC)cc(C)cc2CC)C(=O)NC12CCC(OC)CC2 (single isomer, unassigned) [I-c-2]
- herbicidal effect, Alopecurus (Alopecurus [1]): 100%
- herbicidal effect, Lolium (Lolium multiflorum [2]): 100%
- herbicidal effect, Veronica (Veronica [4]): 80%
- herbicidal effect, Setaria (Setaria viridis [5]): 100%
- herbicidal effect, Echinochloa (Echinochloa crus-galli): 100%
- herbicidal effect, Alopecurus (Alopecurus [6]; 80 g of a.i./ha): 90%
- herbicidal effect, Lolium (Lolium multiflorum [7]; 80 g of a.i./ha): 100%
- herbicidal effect, Echinochloa (Echinochloa): 100%
- herbicidal effect, Setaria (Setaria viridis [10]; 80 g of a.i./ha): 90%

SMILES: CCc1cc(C)cc(CC)c1C1=C(O)C2(CCC(OC)CC2)NC1=O (stereo not shown) [I-a-1]
- Summer barley observed (%) (Summer barley; [11]): 20%
- Summer barley observed (%) (Summer barley; [12]): 60%
- Summer barley observed (%) (Summer barley; greenhouse, post-emergence, 50 g of a.i./ha): 93%

SMILES: CCc1cc(C)cc(CC)c1C1=C(OC(=O)COC)C2(CCC(OC)CC2)NC1=O (stereo not shown) [I-b-1]
- herbicidal effect, Alopecurus (Alopecurus [1]): 100%
- herbicidal effect, Lolium (Lolium multiflorum [2]): 100%
- herbicidal effect, Avena fatua (Avena fatua [3]): 100%
- herbicidal effect, Veronica (Veronica [4]): 80%
- herbicidal effect, Setaria (Setaria viridis [5]): 100%
- Summer wheat observed (%) (Summer wheat; 25 g of a.i./ha): 90%

SMILES: C=CCOC(=O)OC1=C(c2c(CC)cc(C)cc2CC)C(=O)NC12CCC(OC)CC2 (stereo not shown) [I-c-1]
- herbicidal effect, Alopecurus (Alopecurus [1]): 100%
- herbicidal effect, Lolium (Lolium multiflorum [2]): 100%
- herbicidal effect, Avena fatua (Avena fatua [3]): 90%
- herbicidal effect, Setaria (Setaria viridis [5]): 100%
- herbicidal effect, Echinochloa (Echinochloa crus-galli): 100%
- Summer barley observed (%) (Summer barley; [11]): 35%
- Summer barley observed (%) (Summer barley; [12]): 60%
- herbicidal effect, Alopecurus (Alopecurus [6]; 80 g of a.i./ha): 100%
- herbicidal effect, Lolium (Lolium multiflorum [7]; 80 g of a.i./ha): 100%
- herbicidal effect, Avena fatua (Avena fatua [8]; 80 g of a.i./ha): 60%
- herbicidal effect, Echinochloa (Echinochloa): 100%
- herbicidal effect, Setaria (Setaria viridis [10]; 80 g of a.i./ha): 100%
